IC50, EC50 and fold induction data for 25 molecules are collected here from patent publication US20060276464A1, “Diarylsulfone sulfonamides and use thereof” (Wyeth, priority 2005, published 2006).

In experiment [1] the target is T1, SFRP-1 (Homo sapiens, UniProt Q8N474).
T1 sequence (Q8N474 32-314): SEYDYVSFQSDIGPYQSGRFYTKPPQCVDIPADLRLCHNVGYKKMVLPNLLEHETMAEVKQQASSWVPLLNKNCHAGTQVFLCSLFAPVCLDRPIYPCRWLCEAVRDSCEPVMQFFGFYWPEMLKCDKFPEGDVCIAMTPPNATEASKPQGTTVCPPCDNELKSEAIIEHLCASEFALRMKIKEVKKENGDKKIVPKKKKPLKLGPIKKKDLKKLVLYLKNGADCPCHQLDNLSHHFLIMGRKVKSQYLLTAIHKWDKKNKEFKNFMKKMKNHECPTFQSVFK
Briefly: Fluorescence polarization binding assay (competitive displacement of a probe compound from SFRP-1).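 Note: test compound competes with a fluorescent probe held by SFRP-1, seen as a drop in probe anisotropy after incubation in darkness, with anisotropy as function of rising compound dose.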 Conditions: fluorescence anisotropy, 45 nM SFRP-1, 20 nM probe. For orientation: Polarisation of emitted light reports the rotation of a fluorescent probe.

In experiment [2] the target is T1, SFRP-1. Briefly: Cell-based assay for in vitro measurement of SFRP-1/SARP2 antagonist activity (U2OS cells co-transfected with 16x TCF-tk-Luciferase reporter, Wnt and hSFRP-1).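 For all read-outs here: U2OS cells co-transfected with a TCF-tk luciferase reporter, a Wnt vector, hSFRP-1 or empty vector and CMV-βgal, luciferase luminescence read in cell lysates alongside βgal activity.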 Conditions: for fold induction at 10 µM: U2OS, read-out: Fold Induction with SFRP-1, U2OS cells, single dose 10 μM, luciferase reporter, fold induction over SFRP-1 control. Background: Reporter assays use an easily measured gene product as a stand-in for the process of interest.

Usually IC50 stands for the point on the concentration scale where inhibition reaches its midpoint. The term EC50 denotes the concentration giving half of the maximal effect. For `CN(CCCNS(=O)(=O)c1cc(S(=O)(=O)c2ccccc2)ccc1C(F)(F)F)C(=O)OC(C)(C)C` [Example 927, tert-butyl methyl[3-({[5-(phenylsulfonyl)-2-(trifluoromethyl)phenyl]sulfonyl}amino)propyl]carbamate], in experiment [1], the IC50 amounted to 2400 nM. Further, in experiment [2], the EC50 was 4510 nM and the fold induction at 10 µM worked out at 2.1.

Consider `Nc1ccc(CCNS(=O)(=O)c2cc(S(=O)(=O)c3ccccc3)ccc2C(F)(F)F)cc1` [Example 928, N-[2-(4-aminophenyl)ethyl]-5-(phenylsulfonyl)-2-(trifluoromethyl)benzenesulfonamide], for which the IC50 in experiment [1] was found to be 180 nM. Moreover, in experiment [2], a half-maximal response (EC50) required 380 nM and the fold induction at 10 µM worked out at 3.9.

As for `CNCCCNS(=O)(=O)c1cc(S(=O)(=O)c2ccccc2)ccc1C(F)(F)F` [Example 929, N-[3-(methylamino)propyl]-5-(phenylsulfonyl)-2-(trifluoromethyl)benzenesulfonamide], the IC50 in experiment [1] was found to be 4000 nM. Besides, in experiment [2], a half-maximal response (EC50) required 3320 nM and the fold induction at 10 µM is 2.9.

As to `CC(C)(C)OC(=O)N1CCC(CCNS(=O)(=O)c2cc(S(=O)(=O)c3ccccc3)ccc2C(F)(F)F)CC1` [Example 931, tert-butyl 4-[2-({[5-(phenylsulfonyl)-2-(trifluoromethyl)phenyl]sulfonyl}amino)ethyl]piperidine-1-carboxylate], the IC50 in experiment [1] came to 4000 nM. In addition, in experiment [2], the EC50 is 1300 nM and the fold induction at 10 µM worked out at 2.9.

In turn, `COC(=O)C1CCCC(NS(=O)(=O)c2cc(S(=O)(=O)c3ccccc3)ccc2C(C)C)C1` (stereo not drawn) [Example 932, methyl 3-({[2-isopropyl-5-(phenylsulfonyl)phenyl]sulfonyl}amino)cyclohexanecarboxylate] came in with an IC50 in experiment [1] of 3000 nM. In experiment [2], the EC50 amounted to 1860 nM and the fold induction at 10 µM came to 2.8.

`COC(=O)C1CCC(NS(=O)(=O)c2cc(S(=O)(=O)c3ccccc3)ccc2C(C)C)CC1` (stereo not drawn) [Example 933, methyl 4-({[2-isopropyl-5-(phenylsulfonyl)phenyl]sulfonyl}amino)cyclohexanecarboxylate] displayed an IC50 in experiment [1] of 6000 nM. For the same molecule, in experiment [2], the EC50 is 1740 nM and the fold induction at 10 µM amounted to 2.5.

In experiment [1], `COC(=O)[C@H]1CC[C@H](CNS(=O)(=O)c2cc(S(=O)(=O)c3ccccc3)ccc2C(C)C)CC1` [Example 934, methyl trans-4-[({[2-isopropyl-5-(phenylsulfonyl)phenyl]sulfonyl}amino)methyl]cyclohexanecarboxylate] gave an IC50 of 2800 nM. Besides, in experiment [2], the EC50 worked out at 2730 nM and the fold induction at 10 µM was 2.3.

In experiment [1], `CC(C)c1ccc(S(=O)(=O)c2ccccc2)cc1S(=O)(=O)NC1CC(C)(C)NC(C)(C)C1` [Example 935, 2-isopropyl-5-(phenylsulfonyl)-N-(2,2,6,6-tetramethylpiperidin-4-yl)benzenesulfonamide] returned an IC50 of 7000 nM. In experiment [2], the EC50 was 2530 nM and the fold induction at 10 µM was found to be 2.5.

`CC(C)c1ccc(S(=O)(=O)c2ccccc2)cc1S(=O)(=O)NCc1ccncc1` [Example 936, 2-isopropyl-5-(phenylsulfonyl)-N-(pyridin-4-ylmethyl)benzenesulfonamide] showed an IC50 in experiment [1] of 3000 nM. In experiment [2], a half-maximal response (EC50) required 1820 nM and the fold induction at 10 µM stood at 2.7.

The molecule `CN(CCNS(=O)(=O)c1cc(S(=O)(=O)c2ccccc2)ccc1C(F)(F)F)C(=O)N[C@H]1CCNC1` [Example 937, N-[2-(methyl{[(3S)-pyrrolidin-3-ylamino]carbonyl}amino)ethyl]-5-(phenylsulfonyl)-2-(trifluoromethyl)benzenesulfonamide] gave an IC50 in experiment [1] of 1700 nM. Further, in experiment [2], the EC50 was determined as 2300 nM and the fold induction at 10 µM came to 2.8.

In experiment [1], `COC(=O)c1cccc(S(=O)(=O)N2CCC(NS(=O)(=O)c3cc(S(=O)(=O)c4ccccc4)ccc3C(F)(F)F)CC2)c1` [Example 938, methyl 3-{[4-({[5-(phenylsulfonyl)-2-(trifluoromethyl)phenyl]sulfonyl}amino)piperidin-1-yl]sulfonyl}benzoate] came in with an IC50 of 900 nM. In experiment [2], the response was half-maximal at 850 nM (EC50) and the fold induction at 10 µM is 4.4.

As for `COc1ccc(CCNS(=O)(=O)c2cc(S(=O)(=O)c3ccccc3)ccc2C(F)(F)F)cc1` [Example 939, N-[2-(4-methoxyphenyl)ethyl]-5-(phenylsulfonyl)-2-(trifluoromethyl)benzenesulfonamide], in experiment [1], the IC50 is 700 nM. Besides, the fold induction at 10 µM in experiment [2] is 2.2.

Take `O=S(=O)(NCCC1CCNCC1)c1cc(S(=O)(=O)c2ccccc2)ccc1C(F)(F)F` [Example 940, 5-(phenylsulfonyl)-N-(2-piperidin-4-ylethyl)-2-(trifluoromethyl)benzenesulfonamide]: the IC50 in experiment [1] came to 1100 nM. In experiment [2], the EC50 was found to be 2280 nM and the fold induction at 10 µM came to 4.1.

With `O=C(O)CN1CCC(CNS(=O)(=O)c2cc(S(=O)(=O)c3ccccc3)ccc2C(F)(F)F)CC1` [Example 941, {4-[({[5-(phenylsulfonyl)-2-(trifluoromethyl)phenyl]sulfonyl}amino)methyl]piperidin-1-yl}acetic acid], in experiment [1], the IC50 amounted to 700 nM. For the same molecule, in experiment [2], the EC50 turned out to be 1340 nM and the fold induction at 10 µM stood at 3.2.

Consider `Nc1ccc(CNS(=O)(=O)c2cc(S(=O)(=O)c3ccccc3)ccc2C(F)(F)F)cc1` [Example 942, N-(4-aminobenzyl)-5-(phenylsulfonyl)-2-(trifluoromethyl)benzenesulfonamide], for which the IC50 in experiment [1] came out at 190 nM. In experiment [2], the concentration for a half-maximal effect (EC50) amounted to 209 nM and the fold induction at 10 µM is 3.8.

Regarding `O=S(=O)(NCCc1ccc(O)cc1)c1cc(S(=O)(=O)c2ccccc2)ccc1C(F)(F)F` [Example 943, N-[2-(4-hydroxyphenyl)ethyl]-5-(phenylsulfonyl)-2-(trifluoromethyl)benzenesulfonamide], in experiment [1], the IC50 came to 400 nM. In experiment [2], the half-maximal effective concentration (EC50) turned out to be 569 nM and the fold induction at 10 µM is 3.4.

For `O=C(O)CN1CCC(CCNS(=O)(=O)c2cc(S(=O)(=O)c3ccccc3)ccc2C(F)(F)F)CC1` [Example 944, {4-[2-({[5-(phenylsulfonyl)-2-(trifluoromethyl)phenyl]sulfonyl}amino)ethyl]piperidin-1-yl}acetic acid], the IC50 in experiment [1] is 1700 nM. For the same molecule, in experiment [2], a half-maximal response (EC50) required 1440 nM and the fold induction at 10 µM was found to be 2.9.

As to `COC(=O)C1CCCC(NS(=O)(=O)c2cc(S(=O)(=O)c3ccccc3)ccc2C(F)(F)F)C1` (stereo not drawn) [Example 945, methyl 3-({[5-(phenylsulfonyl)-2-(trifluoromethyl)phenyl]sulfonyl}amino)cyclohexanecarboxylate], the IC50 in experiment [1] was determined as 900 nM. Further, in experiment [2], a half-maximal response (EC50) required 1120 nM and the fold induction at 10 µM came to 2.9.

As for `COC(=O)C1CCC(NS(=O)(=O)c2cc(S(=O)(=O)c3ccccc3)ccc2C(F)(F)F)CC1` (stereo not drawn) [Example 946, methyl 4-({[5-(phenylsulfonyl)-2-(trifluoromethyl)phenyl]sulfonyl}amino)cyclohexanecarboxylate], the IC50 in experiment [1] is 500 nM. Further, in experiment [2], the midpoint of the response, the EC50, lay at 1460 nM and the fold induction at 10 µM was found to be 3.

Regarding `COC(=O)[C@H]1CC[C@H](CNS(=O)(=O)c2cc(S(=O)(=O)c3ccccc3)ccc2C(F)(F)F)CC1` [Example 947, methyl trans-4-[({[5-(phenylsulfonyl)-2-(trifluoromethyl)phenyl]sulfonyl}amino)methyl]cyclohexanecarboxylate], the IC50 in experiment [1] was determined as 400 nM. Besides, in experiment [2], the EC50 was determined as 695 nM and the fold induction at 10 µM stood at 3.2.

Consider `CC1(C)CC(NS(=O)(=O)c2cc(S(=O)(=O)c3ccccc3)ccc2C(F)(F)F)CC(C)(C)N1` [Example 948, 5-(phenylsulfonyl)-N-(2,2,6,6-tetramethylpiperidin-4-yl)-2-(trifluoromethyl)benzenesulfonamide], for which the IC50 in experiment [1] was found to be 6000 nM. Also, in experiment [2], the EC50 came out at 2740 nM and the fold induction at 10 µM is 2.4.

`O=S(=O)(NCc1ccncc1)c1cc(S(=O)(=O)c2ccccc2)ccc1C(F)(F)F` [Example 949, 5-(phenylsulfonyl)-N-(pyridin-4-ylmethyl)-2-(trifluoromethyl)benzenesulfonamide]: in experiment [1], the IC50 worked out at 800 nM. Further, in experiment [2], the EC50 came to 1000 nM and the fold induction at 10 µM was 3.2.

As to `COC(=O)c1ccc(CNS(=O)(=O)c2cc(S(=O)(=O)c3ccccc3)ccc2C(F)(F)F)cc1` [Example 950, methyl 4-[({[5-(phenylsulfonyl)-2-(trifluoromethyl)phenyl]sulfonyl}amino)methyl]benzoate], the IC50 in experiment [1] was 1800 nM. For the same molecule, in experiment [2], the EC50 was found to be 1840 nM and the fold induction at 10 µM came out at 2.6.

The molecule `CC(C)c1ccc(S(=O)(=O)c2ccccc2)cc1S(=O)(=O)NC1CCCC(C(=O)O)C1` (stereo not drawn) [Example 952, 3-({[2-isopropyl-5-(phenylsulfonyl)phenyl]sulfonyl}amino)cyclohexanecarboxylic acid] came in with an IC50 in experiment [1] of 5000 nM. Moreover, in experiment [2], the fold induction at 10 µM was 1.4.

Take `CC(C)c1ccc(S(=O)(=O)c2ccccc2)cc1S(=O)(=O)NC1CCC(C(=O)O)CC1` (stereo not drawn) [Example 953, 4-({[2-isopropyl-5-(phenylsulfonyl)phenyl]sulfonyl}amino)cyclohexanecarboxylic acid]: the IC50 in experiment [1] is 7000 nM. Besides, the fold induction at 10 µM in experiment [2] is 1.5.
